Counter-ions that a name gives are not always drawn. Like-named read-outs stand apart in the source and are kept apart here.
Tested on: murine neural precursor cells (neurosphere cultures)
Assay: HTS of LOPAC library against secondary neurosphere cultures, MTT proliferation assay at 3 μM, day 7 (z score, P value)
Assay type: cell-based, mouse
[1] = LOPAC screen, neurosphere MTT proliferation, 3 μM, day 7
[2] = yes/no: significantly inhibited neurosphere proliferation (P<0.01) in primary screen
[3] = LOPAC library screen at 3 μM, secondary neurosphere cultures, MTT
[4] = LOPAC primary screen, neurosphere MTT proliferation, 3 μM, day 7
[5] = LOPAC library screen, 3 μM, MTT, neurosphere cultures
[6] = primary LOPAC screen, 3 μM, MTT, neurosphere proliferation
[7] = yes/no: significantly inhibited neurosphere proliferation in the primary screen
[8] = LOPAC library screen, 3 μM, MTT, secondary neurosphere cultures, day 7
[9] = yes/no: significantly inhibited neurosphere proliferation in primary screen
[10] = yes = significantly inhibited neurosphere proliferation (P<0.01) in the primary screen
[11] = yes/no: significantly inhibited neurosphere proliferation (P<0.01) in the primary screen

c1ccc(-c2ccccn2)nc1 [2,2′-Bipyridyl]
Z Score: 1.455 | Z score [1]: 1.455 | Activity [2]: no

CC1=C(/C=C/C(C)=C/C=C/C(C)=C/C(=O)O)C(C)(C)CCC1 [Retinoic acid]
Z Score [3]: −0.8657 | Z score [4]: −0.866

(+)-Catechin Hydrate
Z Score [5]: 0.5105 | Z score [6]: 0.511 | Activity [7]: no

CCC(NC(C)C)C(O)c1ccc(O)c(O)c1.CS(=O)(=O)O (stereo not drawn) [Isotharine mesylate]
Z Score: −0.6392 | Z score [4]: −0.639 | Activity [2]: no

CCCN1CCC[C@@H](c2cccc(C#N)c2)C1.Cl [S(−)-DS 121 hydrochloride]
Z Score: −0.0998 | Z score [1]: −0.100 | Activity [2]: no

CNC(=O)[C@H]1O[C@@H](n2cnc3c(NCc4cccc(I)c4)ncnc32)[C@H](O)[C@@H]1O [IB-MECA]
Z Score [3]: −1.089 | Z score [4]: −1.089 | Activity [2]: no

CC(C)Cn1c(=O)n(C)c(=O)c2[nH]cnc21 [3-Isobutyl-1-methylxanthine]
Z Score (168 h, 3 µM): −0.774 | Z score (168 h, 3 µM): −0.774 | Activity [2]: no

COc1cc(C=C(C#N)C#N)cc(O)c1O [Tyrphostin AG 34]
Z Score [8]: −2.319 | Z score [4]: −2.319 | Activity [9]: no

N=C(N)NCCC[C@H](N)C(=O)O [L-Arginine]
Z Score: 0.5592 | Z score [6]: 0.559 | Activity [7]: no

CC(Cc1ccc(O)cc1)NCC(O)c1cc(O)cc(O)c1 (stereo not drawn) [Fenoterol hydrobromide]
Z Score: −1.841 | Z score [4]: −1.841 | Activity [2]: no

Nc1nc2[nH]c(=O)cnc2c(=O)[nH]1 [Isoxanthopterin]
Z Score: 0.2339 | Z score [4]: 0.234 | Activity [2]: no

CN1C[C@H](O)[C@@H](O)[C@H](O)[C@H]1CO [N-Methyl-1-deoxynojirimycin]
Z Score: −1.335 | Z score [4]: −1.335 | Activity [10]: no

CC(Oc1ccc(Oc2cnc3ccc(Cl)cc3n2)cc1)C(=O)O (stereo not drawn) [XK469]
Activity: yes | Z Score: −9.355 | Z score [4]: −9.355

Br.CCCN1CCC[C@@H]2c3ccc(O)cc3CC[C@@H]21 [cis-(B1)-8-OH-PBZI hydrobromide]
Z Score: −2.297

Br.Cc1cccc(C2CN(C)CCc3c2cc(O)c(O)c3Cl)c1 (stereo not drawn) [SKF 83959 hydrobromide]
Z Score: −1.357 | Z score [4]: −1.357 | Activity [9]: no

COc1ccc(Cc2nccc3cc(OC)c(OC)cc23)cc1OC [Papaverine hydrochloride]
Z Score [3]: −0.2992 | Z score [4]: −0.299 | Activity [9]: no

Cc1[nH]c(=O)c(C#N)cc1-c1ccncc1 [Milrinone]
Z Score [5]: 0.05506 | Z score [4]: 0.055 | Activity [10]: no

CNC1(C)C2CCC(C2)C1(C)C (stereo not drawn) [Mecamylamine hydrochloride]
Z Score [8]: −2.108 | Z score [4]: −2.108 | Activity [10]: no

CC1CNCCN1S(=O)(=O)c1cccc2cnccc12.Cl.Cl (stereo not drawn) [1-(5-Isoquinolinylsulfonyl)-2-methylpiperazine dihydrochloride]
Z Score (168 h, 3 µM): 0.3352 | Z score (168 h, 3 µM): 0.335 | Activity [2]: no

CCn1cc(C(=O)O)c(=O)c2ccc(Cc3ccccc3)nc21 [Amfonelic acid]
Z Score [5]: 0.488 | Z score [1]: 0.488 | Activity [2]: no

CN(C)CCC=C1c2ccccc2CCc2ccccc21 [Amitriptyline hydrochloride]
Z Score (168 h, 3 µM): 0.7066 | Z score (168 h, 3 µM): 0.707 | Activity [11]: no

CCOC(=O)C1=C(C)NC(C)=C(C(=O)OC)C1c1cccc([N+](=O)[O-])c1 (stereo not drawn) [Nitrendipine]
Z Score [8]: −1.61 | Z score [4]: −1.610

N=C(N)NC(=O)c1nc(Cl)c(N2CCCCCC2)nc1N [5-(N,N-hexamethylene)amiloride]
Z Score [5]: 0.03855 | Z score [6]: 0.039 | Activity [7]: no

O=c1cc(-c2ccc(O)c(O)c2)oc2cc(O)cc(O)c12 [Luteolin]
Z Score [8]: −1.323 | Z score [4]: −1.323 | Activity [2]: no

CC(=O)O.CNC(=N)NCCC[C@H](N)C(=O)O [NG-Monomethyl-L-arginine acetate]
Z Score [8]: −1.386 | Z score [4]: −1.386 | Activity [10]: no

COc1cc(C(O)C(=O)O)ccc1O (stereo not drawn) [(B1)-Vanillylmandelic acid]
Z Score: −1.811

COc1cc2nc(N3CCN(C(=O)C4CCCO4)CC3)nc(N)c2cc1OC (stereo not drawn) [Terazosin hydrochloride]
Activity: no | Z Score [5]: −0.05722 | Z score [6]: −0.057

OCc1ccc(-c2nn(Cc3ccccc3)c3ccccc23)o1 [YC-1]
Z Score: 0.4335 | Z score [6]: 0.433 | Activity [7]: no

Cl.NC(N)=NCCNS(=O)(=O)c1cccc2cnccc12 [HA-1004 hydrochloride]
Z Score: 0.3161 | Z score [4]: 0.316 | Activity [2]: no

CCCCCCC(C(C)O)n1cnc2c(N)ncnc21.Cl (stereo not drawn)
Z Score [3]: −0.7656 | Z score [4]: −0.766 | Activity [2]: no

COC(=O)Nc1nc2ccc(C(=O)c3cccs3)cc2[nH]1 [Nocodazole]
Z Score [3]: −0.1891 | Z score [4]: −0.189 | Activity [10]: no

C[C@@H]1C(=O)NC2=Nc3cccc(Cl)c3CN21 [Quazinone]
Z Score [5]: 0.2046 | Z score [4]: 0.205 | Activity [9]: no

O=C(CCCN1CCC(O)(c2cccc(C(F)(F)F)c2)CC1)c1ccc(F)cc1 [Trifluperidol hydrochloride]
Z Score [8]: −1.621 | Z score [6]: −1.621 | Activity [7]: no

CC(=O)c1c(O)c(C)c(O)c(Cc2c(O)c3c(c(C(=O)/C=C/c4ccccc4)c2O)OC(C)(C)C=C3)c1O [Rottlerin]
Z Score: 0.3042 | Z score [4]: 0.304 | Activity [9]: no

Cl.Nc1ccn([C@@H]2O[C@H](CO)[C@@H](O)[C@@H]2O)c(=O)n1
Z Score [8]: −11.27 | Z score [4]: −11.274 | Activity [11]: yes

O=c1c(O)c(-c2cc(O)c(O)c(O)c2)oc2cc(O)cc(O)c12 [Myricetin]
Z Score: −0.9113 | Z score [4]: −0.911 | Activity [10]: no

Cl.NCCc1ccc(S(=O)(=O)F)cc1 [4-(2-Aminoethyl)benzenesulfonyl fluoride hydrochloride]
Z Score: 0.3634 | Z score [6]: 0.363 | Activity [7]: no

O=C1CN(/N=C/c2ccc(-c3ccc([N+](=O)[O-])cc3)o2)C(O)=N1 [Dantrolene sodium]
Activity: no | Z Score [5]: 0.7985 | Z score [1]: 0.798

CC(CCc1ccc(O)cc1)NCCc1ccc(O)c(O)c1 (stereo not drawn) [Dobutamine hydrochloride]
Z Score [5]: 0.3185 | Z score [1]: 0.319 | Activity [2]: no

CC1(C)CCC=[N+]1[O-] [5,5-Dimethyl-1-pyrroline-N-oxide]
Z Score (168 h, 3 µM): −1.666 | Z score (168 h, 3 µM): −1.666 | Activity [2]: no

COc1ccc2[nH]c3c(c2c1)CCNC3
Z Score: −2.661

CN(C)CCCCSC(=N)N.Cl.Cl [SKF 91488 dihydrochloride]
Z Score: −0.766 | Z score [4]: −0.766 | Activity [9]: no

N#C/C(=C\c1ccc(O)c(O)c1)C(=O)N1CCc2ccccc21 [Tyrphostin AG 528]
Z Score [3]: −0.1481 | Z score [6]: −0.148 | Activity [7]: no

Cl.Clc1ccc(N2CCN(Cc3c[nH]c4ncccc34)CC2)cc1 [L-745,870 hydrochloride]
Z Score: −11.27 | Z score [4]: −11.274

Cl.Cl.Cl.NCCCCNCCCN [Spermidine trihydrochloride]
Z Score [5]: 1.259 | Z score [4]: 1.259 | Activity [9]: no

CC(C)C(=O)c1c(C(C)C)nn2ccccc12 [Ibudilast]
Z Score [5]: 0.3787 | Z score [4]: 0.379

NC(=O)c1cnccn1 [Pyrazinecarboxamide]
Z Score [8]: −1.617 | Z score [4]: −1.617 | Activity [9]: no

Br.C=CCN1CCc2c(cc(O)c(O)c2Cl)C(c2ccccc2)C1 (stereo not drawn) [(B1)-Chloro-APB hydrobromide]
Z Score: −0.111

CCC1(C2=NCCN2)Cc2ccccc2O1 (stereo not drawn) [Efaroxan hydrochloride]
Z Score [8]: −2.338 | Z score [4]: −2.338 | Activity [11]: yes

COc1ccc(CCN(C)CCc2ccc(OC)c(OC)c2)cc1OC.Cl [YS-035 hydrochloride]
Z Score: 0.04311 | Z score [4]: 0.043 | Activity [11]: no

CCN(CC)C(=O)NC1C=C2c3cccc4[nH]cc(c34)C[C@H]2N(C)C1.O=C(O)/C=C\C(=O)O (stereo partly drawn) [R(+)-Lisuride hydrogen maleate]
Z Score: −1.041 | Z score [4]: −1.041

N[C@@H](CS(=O)O)C(=O)O [L-Cysteinesulfinic Acid]
Z Score [5]: 1.458 | Z score [1]: 1.458 | Activity [2]: no

Br.CCSC(=N)N [S-Ethylisothiourea hydrobromide]
Z Score (168 h, 3 µM): −1.599 | Z score (168 h, 3 µM): −1.599 | Activity [2]: no

COc1cccc(-c2cc(=O)c3ccccc3o2)c1N [PD 98,059]
Activity: no | Z Score: 0.9027 | Z score [4]: 0.903

CCC1(c2ccc(N)cc2)CCC(=O)NC1=O (racemic) [(±)-p-Aminoglutethimide]
Activity: no | Z score [6]: −0.444

Cc1ccccc1C(OCCN(C)C)c1ccccc1 (stereo not drawn) [Orphenadrine hydrochloride]
Z Score [5]: 0.4548 | Z score [4]: 0.455

CCCCCCCCCCCCCCCCCC(=O)OC(CC(=O)O)C[N+](C)(C)C.[Cl-] (racemic) [DL-Stearoylcarnitine chloride]
Z Score: 0.6378 | Z score [4]: 0.638 | Activity [9]: no
